Reference: patent publication US6486201B1, “Agarofuan derivatives, their preparation, pharmaceutical composition containing them and their use as medicine” (Institute of Materia Medica, Chinese Academy of Medical …, priority 1998, dated 2002)

Key:
Wistar rats [1] = assay: Elevated plus maze test on rats; type: in vivo, rat; settings: for total time of staying on the opened arm (sec. in 5 min.): in 2% lecithin, n 12
Text: The elevated plus-maze test has been used by Pellow, S. And File, SE. for anti-anxiety model in rats. It is one of the most widely used models for anxiolytics. The elevated plus maze has two cross arms, one is an opened arm (50*10 cm, length, width), another is a closed arm (50×10×40 cm, length, width, height) and the maze is 50 cm above the floor during experiment. The rat for experiment is put on the opening at the cross point (10×10) of the two arms, and may freely choose to enter either opened or closed arm.
Wistar rats of 160±20 g body weight were used, and divided randomly into 8 groups, 12 in each group. Handling adaptability training was carried out one week before the experiment. In the experiment, AF-5 in 2% lecithin of the doses listed in Table 1 was given to rats which were fasted for 12 hours before experiment. After administration, the rat was put on the center opening of the elevated plus headed to opened arm, and times of entering the opened arm, total time of staying on the opened arm, and times of shuttling inside the closed arm were recorded.

Wistar rats [2] = assay: Social interaction test on rats; type: in vivo, rat; settings: mean ± SD; for total time of interaction, 0-9 (minutes): high illuminance unfamiliar conditions (HU); for interaction time (sec. in 9 min): 2 mg/kg ip, HU
Method: The rats (Wistar, 160±20 g) for experiment were individually housed in chambers (55×55×40 cm), and handling adaptability and injection training were carried out twice a day 2 weeks before experiment. One day before experiment, the rats were weighed, labeled and grouped at random in pairs but still separated-until experiment. In experiment, 8 pairs of rats were given AF-5 in 2% lecithin (2% lecithin as control), and the total time of interaction was recorded including smelling, licking, leaning against, grabbing, chasing, biting, following, kicking, hitting etc. The experiment conditions were high illuminance with unfamiliar conditions (HU), low illuminance with unfamiliar conditions, high illuminance with familiar conditions and low illuminance with familiar conditions T-test was used to determine the significance between the test group and control group (Table 3, 4).

Kunming mice = assay: Forced swimming test on mice (anti-depression activity); type: in vivo, mouse; settings: for time of immobile phase (sec/4 min): mean ± SD
Method: The experiment used Kunming mice of China, male, 18-21 g of body weight. […]
The water in experiment vessel was 12 cm in depth, 12.5 cm in diameter and kept at 26° C. Each mouse was put in the water and forced to swim for 6 min in which total immobile time in the last 4 min was recorded, and the significance between experiment group and control group was tested by T value (Table 5).

mice = assay: Single dose toxicity in mice; type: in vivo
Text: One week alive rate was 100%. The possible durable dosage was 2.4 g/kg by P.O. and two week alive rate was 100% at this dosage.

Wistar rats [3] = assay: Elevated plus maze test on rats; type: in vivo, rat; settings: 32 mg/kg ip, in 2% lecithin, mean ± SD, n 4
[4] = 2 mg/kg ip, time 5 minutes, mean ± SE
[5] = 2 mg/kg ip, time 15 minutes, mean ± SE
[6] = 2 mg/kg ip, time 30 minutes, mean ± SE
[7] = 2 mg/kg ip, time 60 minutes, mean ± SE
[8] = 2 mg/kg ip, time 90 minutes, mean ± SE

SMILES: CCCCC1=CCC[C@@]2(C)CC[C@@H]3C[C@]12OC3(C)C [AF-5, (1R,6S,9R)6,10,10-Trimethyl-2-butyl-11-oxatricyclo[7.2.1.0^1,6]dodec-2-ene]
- Times of shuttling (Wistar rats [1]; 0.5 mg/kg ip, 5 min, closed arm, mean ± SD): 2.5
- total time of staying on the opened arm (sec. in 5 min.) (Wistar rats [1]; 0.5 mg/kg ip, 5 min, mean ± SD): 23 sec. in 5 min.
- Times of shuttling (Wistar rats [1]; 1 mg/kg ip, 5 min, closed arm, mean ± SD): 2.8
- total time of staying on the opened arm (sec. in 5 min.) (Wistar rats [1]; 1 mg/kg ip, 5 min, mean ± SD): 25 + sec. in 5 min.
- Times of shuttling (Wistar rats [1]; 2 mg/kg ip, 5 min, closed arm, mean ± SD): 2.8
- total time of staying on the opened arm (sec. in 5 min.) (Wistar rats [1]; 2 mg/kg ip, 5 min, mean ± SD): 36 sec. in 5 min.
- Time in opened arm (Wistar rats [1]; [4]): 4.4
- Times of shuttling (Wistar rats [1]; [4]): 3.0
- Time in opened arm (Wistar rats [1]; [5]): 6.1
- Times of shuttling (Wistar rats [1]; [5]): 4.1
- Time in opened arm (Wistar rats [1]; [6]): 7.9
- Times of shuttling (Wistar rats [1]; [6]): 6.6
- Time in opened arm (Wistar rats [1]; [7]): 20.8
- Times of shuttling (Wistar rats [1]; [7]): 5.6
- Time in opened arm (Wistar rats [1]; [8]): 1.27
- Times of shuttling (Wistar rats [1]; [8]): 3.7
- Times of shuttling (Wistar rats [1]; 4 mg/kg ip, 5 min, closed arm, mean ± SD): 2.3
- total time of staying on the opened arm (sec. in 5 min.) (Wistar rats [1]; 4 mg/kg ip, 5 min, mean ± SD): 30 sec. in 5 min.
- Times of shuttling (Wistar rats [1]; 8 mg/kg ip, 5 min, closed arm, mean ± SD): 1.3
- total time of staying on the opened arm (sec. in 5 min.) (Wistar rats [1]; 8 mg/kg ip, 5 min, mean ± SD): 14 sec. in 5 min.
- Times of shuttling (Wistar rats [1]; 16 mg/kg ip, 5 min, closed arm, mean ± SD): 4.2
- total time of staying on the opened arm (sec. in 5 min.) (Wistar rats [1]; 16 mg/kg ip, 5 min, mean ± SD): 9.8 sec. in 5 min.
- Times of shuttling (Wistar rats [1]; 32 mg/kg ip, 5 min, closed arm, mean ± SD): 3.0
- anti-anxiety activity in elevated plus maze test (in words) (Wistar rats [1]; rats, dose-effect): antianxiety activity with a wide dosage range
- total time of interaction, 0-9 (minutes) (Wistar rats [2]; 0.125 mg/kg): 1.93 min
- total time of interaction, 0-9 (minutes) (Wistar rats [2]; 0.25 mg/kg): 2.28 min
- total time of interaction, 0-9 (minutes) (Wistar rats [2]; 0.5 mg/kg): 3.65 min
- total time of interaction, 0-9 (minutes) (Wistar rats [2]; 1.0 mg/kg): 4.02 min
- interaction time (sec. in 9 min) (Wistar rats [2]; time 5 minutes): 98 sec. in 9 min
- interaction time (sec. in 9 min) (Wistar rats [2]; time 15 minutes): 143 sec. in 9 min
- interaction time (sec. in 9 min) (Wistar rats [2]; time 30 minutes): 103 sec. in 9 min
- interaction time (sec. in 9 min) (Wistar rats [2]; time 60 minutes): 166 sec. in 9 min
- interaction time (sec. in 9 min) (Wistar rats [2]; time 90 minutes): 112 sec. in 9 min
- total time of interaction, 0-9 (minutes) (Wistar rats [2]; 2.0 mg/kg): 3.25 min
- total time of interaction, 0-9 (minutes) (Wistar rats [2]; 4.0 mg/kg): 3.23 min
- time of immobile phase (sec/4 min) (Kunming mice; P.O. three times a day (24, 5, 0.5 hours before experiment), 0.5 mg/kg): 90 ± 25 sec/4 min
- time of immobile phase (sec/4 min) (Kunming mice; P.O. three times a day (24, 5, 0.5 hours before experiment), 1.5 mg/kg): 60 ± 30 sec/4 min
- time of immobile phase (sec/4 min) (Kunming mice; P.O. three times a day (24, 5, 0.5 hours before experiment), 5.0 mg/kg): 83 ± 35 sec/4 min
- time of immobile phase (sec/4 min) (Kunming mice; P.O. three times a day (24, 5, 0.5 hours before experiment), 15.0 mg/kg): 74 ± 41 sec/4 min
- time of immobile phase (sec/4 min) (Kunming mice; P.O., s.i.d. × 21 days, 5.0 mg/kg): 84 ± 41 sec/4 min
- time of immobile phase (sec/4 min) (Kunming mice; P.O., s.i.d. × 21 days, 7.5 mg/kg): 69 ± 45 sec/4 min
- time of immobile phase (sec/4 min) (Kunming mice; P.O., s.i.d. × 21 days, 15.0 mg/kg): 92 ± 66 sec/4 min
- time of mobile phase vs. control (in words) (Kunming mice; administration in 21 successive days): prolonged the mobile time significantly
- anti-depression activity in forced swimming test (in words) (Kunming mice; mice): has anti-depression activity
- time of mobile phase vs. control (in words) (Kunming mice; single dosing 1.5, 5, and 15 mg/kg): did not prolong the time of mobile phase
- time of immobile phase (sec/4 min) (Kunming mice; single dosing, P.O., 0.5 hr, 1.5 mg/kg): 93 ± 39 sec/4 min
- time of immobile phase (sec/4 min) (Kunming mice; single dosing, P.O., 0.5 hr, 5.0 mg/kg): 101 ± 52 sec/4 min
- time of immobile phase (sec/4 min) (Kunming mice; single dosing, P.O., 0.5 hr, 15.0 mg/kg): 97 ± 43 sec/4 min
- time of mobile phase vs. control (in words) (Kunming mice; three times a day, 1.5 mg/kg group): showed significance
- time of mobile phase vs. control (in words) (Kunming mice; three times a day, 0.5 and 5 mg/kg groups): did not show significance though prolonged the mobile time
- observed reactions after single dose (mice; intravenous injection 500 mg, mice): effect of calming, lying down, decreasing alarm reaction and without other abnormal reactions
- toxicity in single dose toxicity test (in words) (mice; mice): low toxicity and high safety coefficient
- possible durable dosage (mice; mouse, in vivo, po, 2 week): 2.4 g/kg
- total time of staying on the opened arm (sec. in 5 min.) (Wistar rats [3]): 9.6 sec. in 5 min.
